Reference: patent US20210115494A1, “Improved method for measurement of microbial biomass” (Mycometer A/S, priority 2018, published 2021)

What was measured:
[1] = tested on: NAHA activity from Dermatophagoides pteronyssinus (Dust mite); test: NAHA activity assay, dust mite; format: biochemical; conditions: Dermatophagoides pteronyssinus (House dust mite)
Method: (§1) In order to determine NAHA activity in different samples, the technology in WO 98/033934 was employed: A sample containing a dried or freeze dried organism is added to a buffer solution containing 4-Methylumbelliferyl N-acetyl-β-D-glucosaminide in a concentration of 20 μM. The reaction-time is varied depending on the ambient temperature and according to a reaction-time/temperature data sheet previously developed for fungal NAHA activity at various temperatures, and is 30 minutes at 23° C. The resulting fluorescence formed during the reaction time is monitored in a calibrated fluorometer.
(§2) Experiments were conducted where varying concentrations of AgNO3 was added to an analysis substrate. Furthermore, the experiments where performed on dried or freeze dried materials where both intact and fragmented cells are to be expected to be present.
(§3) Experiments analogous to those in example 1 were carried out, but instead of using non-specific inhibitors, the effect of different concentrations of DNJNAc on the NAHA activity in various biomass containing samples was investigated.

[2] = tested on: NAHA activity from Penicillium commune; test: NAHA activity assay, Penicillium commune; format: biochemical
Method: as §1, §3

non-fungal NAHA activity = test: NAHA activity assay, non-fungal sources overall; format: biochemical
Method: as §1, §2, §3

fungal NAHA activity = test: NAHA activity assay, fungal sources overall; format: biochemical, fungi
Method: as §1, §2, §3
The experiments were performed with whole cell/organism cultures rather than purified enzyme, which is normally used in experiments on specific inhibition. It is plausible, though, that the surprising non-specific inhibition effect observed for Ag^+ and Hg^+ could be due to the inhibitors being delayed in physically contacting the NAHA enzyme in the fungi when compared to other types of biomass.

SMILES: CC(=O)N[C@H]1CN[C@H](CO)[C@@H](O)[C@@H]1O [DNJNAc, 2-Acetamido-1,2-dideoxynojirimycin]
- NAHA activity, 0 μM DNJNAc = 100% ([1]; DNJNAc 24.5 μM): 5%
- NAHA activity, 0 μM DNJNAc = 100% ([1]; DNJNAc 49 μM): 2%
- NAHA activity, 0 μM DNJNAc = 100% ([1]; DNJNAc 98 μM): 1%
- NAHA activity, 0 μM DNJNAc = 100% ([1]; DNJNAc 196 μM): 1%
- NAHA activity, 0 μM DNJNAc = 100% ([2]; DNJNAc 24.5 μM): 76%
- NAHA activity, 0 μM DNJNAc = 100% ([2]; DNJNAc 49 μM): 62%
- NAHA activity, 0 μM DNJNAc = 100% ([2]; DNJNAc 98 μM): 45%
- NAHA activity, 0 μM DNJNAc = 100% ([2]; DNJNAc 196 μM): 22%
- non fungal activity retained, average (non-fungal NAHA activity; 24.5 μM in the assay substrate): 11%
- non-fungal NAHA activity retained, average of the control (non-fungal NAHA activity; 196 μM): 5%
- fungal NAHA activity retained, average (fungal NAHA activity; 24.5 μM in the assay substrate): 83%
- fungal NAHA activity retained, average (fungal NAHA activity; 196 μM): 60%
